Test results from US12577257B2, “Heterocyclic compounds” (Hoffmann-La Roche Inc., priority 2018, dated 2026).

The compounds below were run against T1, MAGL (Homo sapiens, UniProt Q99685) (assay: 2-AG assay: MAGL hydrolysis of 2-arachidonoylglycerol to arachidonic acid, followed by mass spectrometry). Conditions: footnote [a]: measured in 2-AG assay.
T1 sequence (Q99685 1-303): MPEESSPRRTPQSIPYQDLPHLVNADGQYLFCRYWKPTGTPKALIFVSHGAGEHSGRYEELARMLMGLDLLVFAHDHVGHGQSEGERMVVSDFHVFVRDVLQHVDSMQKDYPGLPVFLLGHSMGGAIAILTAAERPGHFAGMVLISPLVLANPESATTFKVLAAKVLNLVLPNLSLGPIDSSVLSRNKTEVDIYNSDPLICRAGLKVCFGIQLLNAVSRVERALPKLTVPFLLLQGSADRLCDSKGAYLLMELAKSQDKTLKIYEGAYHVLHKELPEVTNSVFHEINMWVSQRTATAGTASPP
Type: biochemical
Experimental: Alternatively, compounds were profiled for MAGL inhibitory activity by determining the enzymatic activity by following the hydrolysis of the natural substrate 2-arachidonoylglycerol resulting in arachidonic acid, which can be followed by mass spectrometry. This assay is hereinafter abbreviated “2-AG assay”.
The 2-AG assay was carried out in 384 well assay plates (PP, Greiner Cat #784201) in a total volume of 20 μL. Compound dilutions were made in 100% DMSO (VWR Chemicals 23500.297) in a polypropylene plate in 3-fold dilution steps to give a final concentration range in the assay from 12.5 μM to […]. 0.25 μL compound dilutions (100% DMSO) were added to 9 μL MAGL in assay buffer (50 mM TRIS (GIBCO, 15567-027), 1 mM EDTA (Fluka, 03690-100 ml), 0.01% (v/v) Tween. After shaking, the plate was incubated for 15 min at RT. To start the reaction, 10 μL 2-arachidonoylglycerol in assay buffer was added. The final concentrations in the assay was […] and 8 μM 2-arachidonoylglycerol. After shaking and 30 min incubation at RT, the reaction was quenched by the addition of 40 μL of acetonitrile containing 4 μM of d8-arachidonic acid. The amount of arachidonic acid was traced by an online SPE system (Agilent Rapidfire) coupled to a triple quadrupole mass spectrometer (Agilent 6460). A C18 SPE cartridge (G9205A) was used in an acetonitrile/water liquid setup. The mass spectrometer was operated in negative electrospray mode following the mass transitions 303.1→259.1 for arachidonic acid and 311.1→267.0 for d8-arachidonic acid. The activity of the compounds was calculated based on the ratio of intensities [arachidonic acid/d8-arachidonic acid].

SMILES | IC50 [nM]
O=C1CO[C@H]2CCN(C(=O)N3CC4(CC(Oc5ccc(C(F)(F)F)cc5F)C4)C3)C[C@H]2N1 [Example 3, (4aR,8aS)-6-(6-(2-Fluoro-4-(trifluoromethyl)phenoxy)-2-azaspiro[3.3]heptane-2-carbonyl)hexahydro-2H-pyrido[4,3-b][1,4]oxazin-3(4H)-one] | 2.3
O=C1CO[C@H]2CCN(C(=O)N3CCC4(CC3)CC(NS(=O)(=O)c3ccc(C(F)(F)F)cc3)CO4)C[C@H]2N1 (stereo in doubt) [Example 29, N-((S)-8-((4aR,8aS)-3-Oxooctahydro-2H-pyrido[4,3-b][1,4]oxazine-6-carbonyl)-1-oxa-8-azaspiro[4.5]decan-3-yl)-4-(trifluoromethyl)benzenesulfonamide] | 47.5
CN([C@H]1COC2(CCN(C(=O)N3CC[C@@H]4OCC(=O)N[C@@H]4C3)CC2)C1)S(=O)(=O)c1ccccc1 [Example 30, N-Methyl-N-((R)-8-((4aR,8aS)-3-oxooctahydro-2H-pyrido[4,3-b][1,4]oxazine-6-carbonyl)-1-oxa-8-azaspiro[4.5]decan-3-yl)benzenesulfonamide] | 49.3
O=C1CO[C@H]2CCN(C(=O)N3CC4(C3)CN(S(=O)(=O)c3ccc(C(F)(F)F)cc3F)C4)C[C@H]2N1 [Example 17, (4aR,8aS)-6-(6-((2-Fluoro-4-(trifluoromethyl)phenyl)sulfonyl)-2,6-diazaspiro[3.3]heptane-2-carbonyl)hexahydro-2H-pyrido[4,3-b][1,4]oxazin-3(4H)-one] | 768
CN(Cc1ccc(F)cc1Cl)C1COC2(CCN(C(=O)N3CC[C@@H]4OCC(=O)N[C@@H]4C3)CC2)C1 (single isomer, unassigned) [Example 33] | 129
O=C1CO[C@H]2CCN(C(=O)N3CCC4(CC3)CC(NCc3ccc(F)cc3Cl)CO4)C[C@H]2N1 (mixture of isomers) [Example 38, rac-(4aR,8aS)-6-(3-((2-Chloro-4-fluorobenzyl)amino)-1-oxa-8-azaspiro[4.5]decane-8-carbonyl)hexahydro-2H-pyrido[4,3-b][1,4]oxazin-3(4H)-one] | 416
O=C1CO[C@H]2CCN(C(=O)N3CC4(CN(Cc5ccc(F)cc5Cl)C4)C3)C[C@H]2N1 [Example 11, (4aR,8aS)-6-(6-(2-Chloro-4-fluorobenzyl)-2,6-diazaspiro[3.3]heptane-2-carbonyl)hexahydro-2H-pyrido[4,3-b][1,4]oxazin-3(4H)-one] | 19.8
O=C1CO[C@H]2CCN(C(=O)N3CCC4(CCN(Cc5ccc(C(F)(F)F)cc5F)C4)C3)C[C@H]2N1 (stereo partly drawn) [Example 14, (4aR,8aS)-6-(7-(2-Fluoro-4-(trifluoromethyl)benzyl)-2,7-diazaspiro[4.4]nonane-2-carbonyl)hexahydro-2H-pyrido[4,3-b][1,4]oxazin-3(4H)-one] | 268
O=C1CO[C@H]2CCN(C(=O)N3CC4(CC(Oc5ccc(F)cc5Cl)C4)C3)C[C@H]2N1 (stereo in doubt) [Example 41, (4aR,8aS)-6-(6-(2-Chloro-4-fluorophenoxy)-2-azaspiro[3.3]heptane-2-carbonyl)hexahydro-2H-pyrido[4,3-b][1,4]oxazin-3(4H)-one] | 466
O=C1CO[C@H]2CCN(C(=O)N3CCC4(CC3)C[C@H](NS(=O)(=O)c3ccccc3)CO4)C[C@H]2N1 (mixture of isomers) [Example 19, rac-(4aR,8aS)-N-((S)-8-(3-oxooctahydro-2H-pyrido[4,3-b][1,4]oxazine-6-carbonyl)-1-oxa-8-azaspiro[4.5]decan-3-yl)benzenesulfonamide] | 821
O=C1CO[C@H]2CCN(C(=O)N3CCC4(CC3)C[C@@H](NS(=O)(=O)c3ccccc3)CO4)C[C@H]2N1 (mixture of isomers) [Example 18, rac-(4aR,8aS)—N—((R)-8-(3-oxooctahydro-2H-pyrido[4,3-b][1,4]oxazine-6-carbonyl)-1-oxa-8-azaspiro[4.5]decan-3-yl)benzenesulfonamide] | 316
O=C1CO[C@H]2CCN(C(=O)N3CCC4(CN(Cc5ccc(C(F)(F)F)cc5F)C4)C3)C[C@H]2N1 [Example 15, (4aR,8aS)-6-(2-(2-Fluoro-4-(trifluoromethyl)benzyl)-2,6-diazaspiro[3.4]octane-6-carbonyl)hexahydro-2H-pyrido[4,3-b][1,4]oxazin-3(4H)-one] | 2030
O=C1CO[C@H]2CCN(C(=O)N3CC4(CC(Oc5ccc(OC(F)(F)F)cc5Cl)C4)C3)C[C@H]2N1 [Example 5, (4aR,8aS)-6-(6-(2-Chloro-4-(trifluoromethoxy)phenoxy)-2-azaspiro[3.3]heptane-2-carbonyl)hexahydro-2H-pyrido[4,3-b][1,4]oxazin-3(4H)-one] | 0.6
O=C1CO[C@H]2CCN(C(=O)N3CC4(CC(Oc5ccc(C(F)(F)F)c(C(F)(F)F)n5)C4)C3)C[C@H]2N1 [Example 23, (4aR,8aS)-6-(6-((5,6-Bis(trifluoromethyl)pyridin-2-yl)oxy)-2-azaspiro[3.3]heptane-2-carbonyl)hexahydro-2H-pyrido[4,3-b][1,4]oxazin-3(4H)-one] | 4.8
O=C1CO[C@H]2CCN(C(=O)N3CCC4(CC3)CC(NS(=O)(=O)c3ccc(F)cc3Cl)CO4)C[C@H]2N1 (stereo in doubt) [Example 31, 2-Chloro-4-fluoro-N-((S)-8-((4aR,8aS)-3-oxooctahydro-2H-pyrido[4,3-b][1,4]oxazine-6-carbonyl)-1-oxa-8-azaspiro[4.5]decan-3-yl)benzenesulfonamide] | 51.3
O=C1CO[C@H]2CCN(C(=O)N3CC4(CC(Oc5ccc(C(F)(F)F)cc5)C4)C3)C[C@H]2N1 [Example 2, (4aR,8aS)-6-(6-(4-(Trifluoromethyl)phenoxy)-2-azaspiro[3.3]heptane-2-carbonyl)hexahydro-2H-pyrido[4,3-b][1,4]oxazin-3(4H)-one] | 5
O=C1CO[C@H]2CCN(C(=O)N3CC4(CN(Cc5ccc(C(F)(F)F)cc5F)C4)C3)C[C@H]2N1 [Example 12, (4aR,8aS)-6-(6-(2-Fluoro-4-(trifluoromethyl)benzyl)-2,6-diazaspiro[3.3]heptane-2-carbonyl)hexahydro-2H-pyrido[4,3-b][1,4]oxazin-3(4H)-one] | 15.7
O=C1CO[C@H]2CCN(C(=O)N3CC4(CC(Oc5cc(C(F)(F)F)c(C(F)(F)F)cn5)C4)C3)C[C@H]2N1 [Example 22, (4aR,8aS)-6-(6-((4,5-Bis(trifluoromethyl)pyridin-2-yl)oxy)-2-azaspiro[3.3]heptane-2-carbonyl)hexahydro-2H-pyrido[4,3-b][1,4]oxazin-3(4H)-one] | 3.8
O=C1CO[C@H]2CCN(C(=O)N3CC4(C3)CN(S(=O)(=O)c3ccc(F)cc3Cl)C4)C[C@H]2N1 [Example 16, (4aR,8aS)-6-(6-((2-Chloro-4-fluorophenyl)sulfonyl)-2,6-diazaspiro[3.3]heptane-2-carbonyl)hexahydro-2H-pyrido[4,3-b][1,4]oxazin-3(4H)-one] | 228
O=C1CO[C@H]2CCN(C(=O)N3CC4(CC(Oc5ccc(Cl)cc5C(F)(F)F)C4)C3)C[C@H]2N1 [Example 7, (4aR,8aS)-6-(6-(4-Chloro-2-(trifluoromethyl)phenoxy)-2-azaspiro[3.3]heptane-2-carbonyl)hexahydro-2H-pyrido[4,3-b][1,4]oxazin-3(4H)-one] | 8.5
O=C1CO[C@H]2CCN(C(=O)N3CC4(CC(Oc5ccc(C(F)(F)F)cn5)C4)C3)C[C@H]2N1 [Example 25, (4aR,8aS)-6-(6-((5-(Trifluoromethyl)pyridin-2-yl)oxy)-2-azaspiro[3.3]heptane-2-carbonyl)hexahydro-2H-pyrido[4,3-b][1,4]oxazin-3(4H)-one] | 28.9
O=C1CO[C@H]2CCN(C(=O)N3CC4(CC(Oc5ccc(F)cc5Cl)C4)C3)C[C@H]2N1 [Example 1, (4aR,8aS)-6-(6-(2-Chloro-4-fluorophenoxy)-2-azaspiro[3.3]heptane-2-carbonyl)hexahydro-2H-pyrido[4,3-b][1,4]oxazin-3(4H)-one] | 4.5
O=C1CO[C@H]2CCN(C(=O)N3CCC4(CC3)CC(Oc3ccc(C(F)(F)F)cc3F)C4)C[C@H]2N1 [Example 10, (4aR,8aS)-6-(2-(2-Fluoro-4-(trifluoromethyl)phenoxy)-7-azaspiro[3.5]nonane-7-carbonyl)hexahydro-2H-pyrido[4,3-b][1,4]oxazin-3(4)-one] | 0.8
